# Measured values: EP1640447A1, “BIOACTIVE PEPTIDE-PRODUCING STRAINS OF i ENTEROCOCCUS FAECALIS /i , BIOACTIVE PEPTIDES AND APPLICATIONS THEREOF” (Grupo Leche Pascual S.A., priority 2003, dated 2004)
# Marks after values point to notes of the source that are not given here.
# What was measured:
# [1] = system: spontaneously hypertensive rats (SHR); test: Blood pressure (tail cuff) after acute intragastric administration in spontaneously hypertensive rats; format: in vivo; conditions: Captopril 50 mg/kg; for variation of diastolic blood pressure / variation of systolic blood pressure: mean ± standard error
# Description: (§1) Male SHR and WKY rats of 17-20 weeks of age and weight comprised between 250 and 300 g were used, obtained from Charles River Laboratories Espana S.A.. The rats were kept at a stable ambient temperature of 23°C and with 12 hour light-dark cycles, taking water and food at will. The measurement of blood pressure in these animals was carried out by means of a modification of the tail cuff technique, originally disclosed by Buñag (Buñag RD. 1973. J Appl Physiol 34:79). This technique usually allows obtaining only systolic blood pressure (SBP) measurements; however, the equipment used in this study (Le50001 Letica model) allows differentiating the SBP and the diastolic blood pressure (DBP) of the animals, as it automatically provides the digital value of both parameters. For this reason the modification of the SBP and the DBP produced by the acute administration of the fermented milks and the peptides were tested in this study. Before placing the cuff on the tails of the rats, these were exposed to a temperature close to 30°C in order to facilitate the dilation of the caudal artery, and they were lightly anaesthetized with diethyl ether according to the process disclosed by Dietz et al. (Dietz R, Schömig A, Haebara H et al. 1978. Circ Res 43: I98-I106) in order to minimize the effect of stress on the measurement. Furthermore, in order to ensure the reliability of the measurement, the animals were familiarized with the process 2 weeks prior to performing the test in question.
# The administration of the products to be tested was performed by means of intragastric probe in a time margin comprised between 9 and 10 am. The SHR rats used for the study had at that time SBP and DBP values comprised respectively between 240 and 290 mm Hg, and between 200 and 250 mm Hg. The WKY rats used for the study had at that time SBP and DBP values comprised respectively between 160 and 200 mm Hg, and between 100 and 140 mm Hg. SBP and DBP measurements were taken periodically in the animals, every 2 hours, up to 8 hours post-administration of the products to be tested; an additional measurement of both variables (SBP and DBP) was taken 24 hours after administration of said products.
# In the case of the fermented milks, the supernatant (whey) obtained by centrifugation at 20,000 x g for 10 minutes of the milk fermented and pasteurized at 75°C for 1 minute following the process described in Example 2 was used as an administration product. From the corresponding supernatant a single administration of 5 mL/kg of animal body weight was used.
# In the tests with peptide SEQ. ID. NO: 1 a single administration was also performed, and the dose used (2 mg/kg) was equivalent in ACEI activity units to the 5 mL/kg dose of supernatant of the milks fermented by E. faecalis CECT 5727, E. faecalis CECT 5728, E. faecalis CECT 5826 and E. faecalis CECT 5827. […] The most significant results were obtained with the peptide identified by SEQ. ID. NO: 1.
# As a negative control (to establish the circadian variation of the SBP and the DBP in probed rats) the measurements obtained in rats that were administered 1 mL of water by intragastric probe were used. As a positive control (to establish the effect on the SBP and the DBP of a prototype ACEI drug, such as Captopril) the measurements of […] obtained in that were administered 50 mg /kg of Captopril by intragastric probe were used. This dose of Captopril was administered to each rat in a volume of 1 mL.
# The results obtained were grouped and the mean ± standard error of the mean (SEM) for a minimum of 7 homogeneous tests was obtained. The data from treated animals was contrasted to one another and with the data considered as negative control. […]
# Wistar-Kyoto rats (WKY) = test: Blood pressure (tail cuff) after acute intragastric administration in normotensive Wistar-Kyoto rats; format: in vivo; conditions: whey 5 mL/kg, Captopril 50 mg/kg, LSD test at each time
# Description: as §1, with “Furthermore, in order to ensure the reliability of the measurement, the animals were familiarized with the process 2 weeks prior to performing the test in question.” left out
# [2] = Time 2 h after single intragastric administration, whey 5 mL/kg
# [3] = Time 4 h after single intragastric administration, whey 5 mL/kg
# [4] = Time 6 h after single intragastric administration, whey 5 mL/kg
# [5] = Time 8 h after single intragastric administration, whey 5 mL/kg
# [6] = Time 24 h after single intragastric administration, whey 5 mL/kg
# [7] = single intragastric administration, whey 5 mL/kg, peptide 2 mg/kg
structure (smiles),measurement,setting,value
C[C@H](CS)C(=O)N1CCC[C@H]1C(=O)O [Captopril],time after administration of maximum reduction / smallest values of DBP,"[1]; peptide 2 mg/kg, intragastric",4 h
same,time after administration of maximum reduction / smallest values of SBP,"[1]; whey 5 mL/kg, peptide 2 mg/kg, intragastric",6 h
same,variation of diastolic blood pressure,[1]; [2],-28.29±2.40^a
same,variation of systolic blood pressure,[1]; [2],-36.08±4.52^a
same,variation of diastolic blood pressure,[1]; [3],-34.90±5.34^a
same,variation of systolic blood pressure,[1]; [3],-51.98±5.36^a
same,variation of diastolic blood pressure,[1]; [4],-28.63±5.77^a
same,variation of systolic blood pressure,[1]; [4],-54.19±5.11^a
same,variation of diastolic blood pressure,[1]; [5],-26.67±7.94^a
same,variation of systolic blood pressure,[1]; [5],-35.44±4.70^a
same,variation of diastolic blood pressure,[1]; [6],1.37±1.02^a
same,variation of systolic blood pressure,[1]; [6],1.23±1.49^a
same,reduction in DBP (in words),[1]; [7],pronounced reduction
same,reduction in SBP (in words),[1]; [7],pronounced reduction
same,changes in DBP,Wistar-Kyoto rats (WKY),no significant differences
same,changes in SBP,Wistar-Kyoto rats (WKY),no significant differences
